For this assay, the target named is Helios (IKZF2) (Homo sapiens, UniProt Q96SW2+Q9UKS7). The assay is described as follows: Screening of Helios protein degraders using Nano-Glo HiBiT cell line (HiBiT-IKZF2). The format is cell-based. To be noted: for remaining activity at 1 µM: compound 1 μM, read-out: HiBiT-IKZF2 Residual amount of Helios (%) 1 μM; for remaining activity at 1 µM / remaining activity at 10 µM: 6 hours, HiBiT-Helios knock-in Jurkat cells; for remaining activity at 10 µM: compound 10 μM, read-out: HiBiT-IKZF2 Residual amount of Helios (%) 10 μM. The procedure: To observe intracellular degradation of Helios, the Nano-Glo HiBiT detection system (Promega) was employed. […] The cells expressing Helios fused with HiBiT were validated using the Nano-Glo HiBiT detection system (Promega) according to a predetermined protocol, isolated as single cells, and cultured in complete medium to establish a monoclonal cell line.
After 6 hours, the Nano-Glo HiBiT detection reagent was added to each well in an equal volume to the cell culture medium and incubated at room temperature for 10 minutes. Following incubation, the HiBiT luminescence signal was measured using a microplate reader (Perkin Elmer).
Background: With HiBiT, luminescence reflects the tagged protein that the partner subunit can reach.

Molecules are shown by their SMILES.

From patent publication US20260216164A1, “INDOLE COMPOUND DECOMPOSING IKZF2, AND USE THEREOF” (KOREA RESEARCH INSTITUTE OF CHEMICAL TECHNOLOGY, priority 2023, published 2026) come the findings set out here.

Helios (IKZF2), sequence (Q9UKS7 whole entry, the tested form may be a part): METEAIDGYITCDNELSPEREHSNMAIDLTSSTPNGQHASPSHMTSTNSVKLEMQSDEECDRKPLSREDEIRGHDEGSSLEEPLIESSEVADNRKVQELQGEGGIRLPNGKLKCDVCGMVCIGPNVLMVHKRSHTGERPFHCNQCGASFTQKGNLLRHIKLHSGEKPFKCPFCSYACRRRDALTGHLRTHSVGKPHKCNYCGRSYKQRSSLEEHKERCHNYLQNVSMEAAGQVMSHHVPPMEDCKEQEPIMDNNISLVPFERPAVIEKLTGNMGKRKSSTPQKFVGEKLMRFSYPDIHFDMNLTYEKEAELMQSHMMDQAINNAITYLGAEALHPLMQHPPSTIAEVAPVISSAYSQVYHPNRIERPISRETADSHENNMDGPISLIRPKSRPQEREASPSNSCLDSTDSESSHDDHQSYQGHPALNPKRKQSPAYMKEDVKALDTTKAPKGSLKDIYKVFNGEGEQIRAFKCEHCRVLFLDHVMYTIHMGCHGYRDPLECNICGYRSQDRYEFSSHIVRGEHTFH
Helios (IKZF2), sequence (Q96SW2 whole entry, the tested form may be a part): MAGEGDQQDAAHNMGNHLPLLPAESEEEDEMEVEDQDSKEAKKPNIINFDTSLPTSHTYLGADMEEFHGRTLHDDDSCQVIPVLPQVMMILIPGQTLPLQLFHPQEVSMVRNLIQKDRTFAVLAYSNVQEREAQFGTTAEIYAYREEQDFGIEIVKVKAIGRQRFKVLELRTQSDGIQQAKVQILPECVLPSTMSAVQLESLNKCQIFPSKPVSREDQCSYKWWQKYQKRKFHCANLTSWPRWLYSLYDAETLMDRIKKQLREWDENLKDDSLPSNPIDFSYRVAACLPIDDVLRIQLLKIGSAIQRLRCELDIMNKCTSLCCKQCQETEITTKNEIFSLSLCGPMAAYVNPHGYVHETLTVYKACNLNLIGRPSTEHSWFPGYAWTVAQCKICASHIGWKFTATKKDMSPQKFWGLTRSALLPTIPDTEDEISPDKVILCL
Helios (IKZF2), sequence (Q16531 whole entry partner, the tested form may be a part): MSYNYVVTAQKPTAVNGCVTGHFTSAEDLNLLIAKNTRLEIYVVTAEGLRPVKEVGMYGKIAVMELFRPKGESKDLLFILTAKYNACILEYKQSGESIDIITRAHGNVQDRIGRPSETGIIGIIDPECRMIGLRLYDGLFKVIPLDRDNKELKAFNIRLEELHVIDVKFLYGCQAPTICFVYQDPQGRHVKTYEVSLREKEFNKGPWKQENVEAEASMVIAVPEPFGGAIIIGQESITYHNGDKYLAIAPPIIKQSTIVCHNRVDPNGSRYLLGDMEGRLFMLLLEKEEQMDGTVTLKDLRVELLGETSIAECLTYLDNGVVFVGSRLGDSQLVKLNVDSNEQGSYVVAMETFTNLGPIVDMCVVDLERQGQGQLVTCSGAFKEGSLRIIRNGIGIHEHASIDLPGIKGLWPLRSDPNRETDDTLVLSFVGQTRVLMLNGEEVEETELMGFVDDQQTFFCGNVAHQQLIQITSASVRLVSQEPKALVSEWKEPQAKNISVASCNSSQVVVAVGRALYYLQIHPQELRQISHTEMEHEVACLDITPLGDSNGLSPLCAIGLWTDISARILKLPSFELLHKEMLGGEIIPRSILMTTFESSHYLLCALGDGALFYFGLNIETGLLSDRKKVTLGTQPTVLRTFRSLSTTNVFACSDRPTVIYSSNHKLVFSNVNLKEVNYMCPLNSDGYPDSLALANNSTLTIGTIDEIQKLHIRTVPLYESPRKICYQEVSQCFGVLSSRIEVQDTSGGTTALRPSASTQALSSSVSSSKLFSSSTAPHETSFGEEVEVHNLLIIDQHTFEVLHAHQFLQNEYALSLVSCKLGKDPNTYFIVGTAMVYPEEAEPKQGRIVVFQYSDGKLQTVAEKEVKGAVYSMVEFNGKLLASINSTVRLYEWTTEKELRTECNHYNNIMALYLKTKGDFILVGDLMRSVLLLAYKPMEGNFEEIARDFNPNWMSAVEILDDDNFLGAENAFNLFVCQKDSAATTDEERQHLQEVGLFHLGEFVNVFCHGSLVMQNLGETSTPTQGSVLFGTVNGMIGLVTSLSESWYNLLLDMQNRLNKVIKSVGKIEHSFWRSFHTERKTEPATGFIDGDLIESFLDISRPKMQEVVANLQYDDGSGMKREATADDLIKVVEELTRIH

Consider `O=C1CCC(N2Cc3cc(C4CCN(C(=O)c5cc6ccc(C(F)(F)F)cc6[nH]5)CC4)ccc3C2=O)C(=O)N1` (stereo not shown) [Compound 41, 3-(1-oxo-5-(1-(6-(trifluoromethyl)-1H-indole-2-carbonyl)piperidin-4-yl)isoindolin-2-yl)piperidine-2,6-dione], for which the remaining activity at 1 µM was found to be 41.7% and the remaining activity at 10 µM was determined as 38.5%.

`COc1ccc2c(C)c(C(=O)N3CCC(c4ccc5c(c4)CN(C4CCC(=O)NC4=O)C5=O)CC3)[nH]c2c1` (stereo not shown) [Compound 42, 3-(5-(1-(6-methoxy-3-methyl-1H-indole-2-carbonyl)piperidin-4-yl)-1-oxoinsoindolin-2-yl)piperidine-2,6-dione]: the remaining activity at 1 µM turned out to be 13.9% and the remaining activity at 10 µM was 13%.

In the case of `Cc1c(C(=O)N2CCC(C#Cc3ccc4c(c3)CN(C3CCC(=O)NC3=O)C4=O)CC2)[nH]c2cc(Cl)ccc12` (stereo not shown) [Compound 43, 3-(5-((1-(6-chloro-3-methyl-1H-indole-2-carbonyl)piperidin-4-yl)ethynyl)-1-oxoinsoindolin-2-yl)piperidine-2,6-dione], the remaining activity at 1 µM was found to be 22.7% and the remaining activity at 10 µM was 15.7%.

As for `Cc1c(C(=O)N2CCC(=Cc3ccc4c(c3)CN(C3CCC(=O)NC3=O)C4=O)CC2)[nH]c2cc(Cl)ccc12` (stereo not shown) [Compound 44, 3-(5-((1-(6-chloro-3-methyl-1H-indole-2-carbonyl)piperidin-4-ylidene)methyl)-1-oxoinsoindolin-2-yl)piperidine-2,6-dione], the remaining activity at 1 µM is 69.7% and the remaining activity at 10 µM came to 61.1%.

For the molecule `O=C1CCC(N2Cc3cc(C4CCN(C(=O)c5cc6ncc(Cl)cc6[nH]5)CC4)ccc3C2=O)C(=O)N1` (stereo not shown) [Compound 45, 3-(5-(1-(6-chloro-1H-picolo[3,2-b]pyridine-2-carbonyl)piperidin-4-yl)-1-oxoinsoindolin-2-yl)piperidine-2,6-dione], the remaining activity at 1 µM came out at 70.3% and the remaining activity at 10 µM turned out to be 58.2%.

On to `O=C1CCC(N2Cc3cc(C4CCN(C(=O)c5cc6cnc(Cl)cc6[nH]5)CC4)ccc3C2=O)C(=O)N1` (stereo not shown) [Compound 46, 3-(5-(1-(6-chloro-1H-picolo[3,2-c]pyridine-2-carbonyl)piperidin-4-yl)-1-oxoinsoindolin-2-yl)piperidine-2,6-dione], for which the remaining activity at 1 µM came to 58.1% and the remaining activity at 10 µM came to 47.4%.

Consider `N#Cc1c(C(=O)N2CCC(c3ccc4c(c3)CN(C3CCC(=O)NC3=O)C4=O)CC2)[nH]c2ccccc12` (stereo not shown) [Compound 51, 2-(4-(2-(2,6-dioxopiperidin-3-yl)-1-oxoindolin-5-yl)piperidine-1-carbonyl)-1H-indole-3-carbonitrile], for which the remaining activity at 10 µM amounted to 76.6%.

As for `Cc1c(C(=O)N2CCC(c3ccc4c(c3)CN(C3CCC(=O)NC3=O)C4=O)CC2)[nH]c2cc(F)ccc12` (stereo not shown) [Compound 54, 3-(5-(1-(6-fluoro-3-methyl-1H-indole-2-carbonyl)piperidin-4-yl)-1-oxoinsoindolin-2-yl)piperidine-2,6-dione], the remaining activity at 10 µM is 26.8%.

Regarding `Cc1c(C(=O)N2CCC(c3ccc4c(c3)CN(C3CCC(=O)NC3=O)C4=O)CC2)[nH]c2cc(C(C)(C)C)ccc12` (stereo not shown) [Compound 56, 3-(5-(1-(6-(tert-butyl)-3-methyl-1H-indole-2-carbonyl)piperidin-4-yl)-1-oxoinsoindolin-2-yl)piperidine-2,6-dione], the remaining activity at 10 µM was found to be 31.3%.

Regarding `O=C1CCC(N2Cc3cc(C4CC5CCC(C4)N5C(=O)c4cc5ccc(Cl)cc5[nH]4)ccc3C2=O)C(=O)N1` (stereo not shown) [Compound 57, 3-(5-(8-(6-chloro-1H-indole-2-carbonyl)-8-azabicyclo[3.2.1]octan-3-yl)-1-oxoinsoindolin-2-yl)piperidine-2,6-dione], the remaining activity at 10 µM is 64.5%.

Turning to `CC1CC(c2ccc3c(c2)CN(C2CCC(=O)NC2=O)C3=O)CCN1C(=O)c1cc2ccc(Cl)cc2[nH]1` (stereo not shown) [Compound 59, 3-(5-(1-(6-chloro-1H-indole-2-carbonyl)-2-methylpiperidin-4-yl)-1-oxoinsoindolin-2-yl)piperidine-2,6-dione], the remaining activity at 10 µM came out at 25.4%.

Regarding `Cc1c(C(=O)N2CCC(c3ccc4c(c3)CN(C3CCC(=O)NC3=O)C4=O)CC2)[nH]c2cc(N)ccc12` (stereo not shown) [Compound 61, 3-(5-(1-(6-amino-3-methyl-1H-indole-2-carbonyl)piperidin-4-yl)-1-oxoinsoindolin-2-yl)piperidine-2,6-dione], the remaining activity at 10 µM was 35%.

As for `Cc1c(C(=O)N2CCC(N3CCC(c4ccc5c(c4)CN(C4CCC(=O)NC4=O)C5=O)CC3)CC2)[nH]c2cc(Cl)ccc12` (stereo not shown) [Compound 62, 3-(5-(1-(6-chloro-3-methyl-1H-indole-2-carbonyl)-[1,4′-bipiperidin]-4-yl)-1-oxoinsoindolin-2-yl)piperidine-2,6-dione], the remaining activity at 10 µM is 23.8%.

Regarding `Cc1c(C(=O)N2CC(N3CCC(c4ccc5c(c4)CN(C4CCC(=O)NC4=O)C5=O)CC3)C2)[nH]c2cc(Cl)ccc12` (stereo not shown) [Compound 63, 3-(5-(1-(1-(6-chloro-3-methyl-1H-indole-2-carbonyl)azetidin-3-yl)piperidin-4-yl)-1-oxoinsoindolin-2-yl)piperidine-2,6-dione], the remaining activity at 10 µM was determined as 30.7%. For the setting “as shown in Table 1”, the “IKZF2 degradation activity (in words, comment on Table 1)” value is “excellent IKZF2 degradation activity”.

On to `Cc1c(C(=O)N2CC=C(c3ccc4c(c3)CN(C3CCC(=O)NC3=O)C4=O)C2)[nH]c2cc(Cl)ccc12` (stereo not shown) [Compound 65, 3-(5-(1-(6-chloro-3-methyl-1H-indole-2-carbonyl)-2,5-dihydro-1H-pyrrol-3-yl)-1-oxoinsoindolin-2-yl)piperidine-2,6-dione], for which the remaining activity at 10 µM stood at 109%.

For `Cc1c(C(=O)N2CCC(n3cc(-c4ccc5c(c4)CN(C4CCC(=O)NC4=O)C5=O)nn3)CC2)[nH]c2cc(Cl)ccc12` (stereo not shown) [Compound 66, 3-(5-(1-(1-(6-chloro-3-methyl-1H-indole-2-carbonyl)piperidin-4-yl)-1H-1,2,3-triazol-4-yl)-1-oxoinsoindolin-2-yl)piperidine-2,6-dione], the remaining activity at 10 µM amounted to 87.8%.

On to `Cc1c(C(=O)N2CCC(c3ccc4c(c3)CN(C3CCC(=O)NC3=O)C4=O)C2)[nH]c2cc(Cl)ccc12` (stereo not shown) [Compound 67, 3-(5-(1-(6-chloro-3-methyl-1H-indole-2-carbonyl)pyrrolidin-3-yl)-1-oxoinsoindolin-2-yl)piperidine-2,6-dione], for which the remaining activity at 10 µM was determined as 78.7%.

Regarding `Cc1ccc2c(C)c(C(=O)N3CCC(c4ccc5c(c4)CN(C4CCC(=O)NC4=O)C5=O)CC3)[nH]c2c1` (stereo not shown) [Compound 69, 3-(5-(1-(3,6-dimethyl-1H-indole-2-carbonyl)piperidin-4-yl)-1-oxoinsoindolin-2-yl)piperidine-2,6-dione], the remaining activity at 1 µM was found to be 22% and the remaining activity at 10 µM came out at 41.8%.

Take `Cc1c(C(=O)N2CC=C(c3ccc4c(c3)CN(C3CCC(=O)NC3=O)C4=O)CC2)[nH]c2cc(Cl)ccc12` (stereo not shown) [Compound 70, 3-(5-(1-(6-chloro-3-methyl-1H-indole-2-carbonyl)-1,2,3,6-tetrahydropyridin-4-yl)-1-oxoinsoindolin-2-yl)piperidine-2,6-dione]: the remaining activity at 1 µM came out at 94.8% and the remaining activity at 10 µM is 101%.

In the case of `Cc1c(C(=O)N2CCC(c3ccc4c(c3)CN(C3CCC(=O)NC3=O)C4=O)CC2)[nH]c2cc(Cl)c(Cl)cc12` (stereo not shown) [Compound 72, 3-(5-(1-(5,6-dichloro-3-methyl-1H-indole-2-carbonyl)piperidin-4-yl)-1-oxoinsoindolin-2-yl)piperidine-2,6-dione], the remaining activity at 1 µM came out at 43.3% and the remaining activity at 10 µM amounted to 34.3%.

For the molecule `CC(=O)Nc1ccc2c(C)c(C(=O)N3CCC(c4ccc5c(c4)CN(C4CCC(=O)NC4=O)C5=O)CC3)[nH]c2c1` (stereo not shown) [Compound 73, N-(2-(4-(2-(2,6-dioxopiperidin-3-yl)-1-oxoindolin-5-yl)piperidine-1-carbonyl)-3-methyl-1H-indol-6-yl)acetamide], the remaining activity at 1 µM came to 59.2% and the remaining activity at 10 µM stood at 27.8%.

`Cc1c(C(=O)N2CCC(c3ccc4c(c3)CN(C3CCC(=O)NC3=O)C4=O)CC2)[nH]c2cc(NS(C)(=O)=O)ccc12` (stereo not shown) [Compound 74, N-(2-(4-(2-(2,6-dioxopiperidin-3-yl)-1-oxoindolin-5-yl)piperidine-1-carbonyl)-3-methyl-1H-indol-6-yl) methanesulfonamide]: the remaining activity at 1 µM turned out to be 73.2% and the remaining activity at 10 µM came out at 75.8%.

`O=Cc1c(C(=O)N2CCC(c3ccc4c(c3)CN(C3CCC(=O)NC3=O)C4=O)CC2)[nH]c2cc(Cl)ccc12` (stereo not shown) [Compound 81, 6-chloro-2-(4-(2-(2,6-dioxopiperidin-3-yl)-1-oxoindolin-5-yl)piperidine-1-carbonyl)-1H-indole-3-carbaldehyde]: the remaining activity at 10 µM came out at 28.7%.

Take `Cc1c(C(=O)N2CCC(c3ccc4c(c3)CN(C3CCC(=O)NC3=O)C4=O)CC2)[nH]c2cc(Cl)c(Br)cc12` (stereo not shown) [Compound 83, 3-(5-(1-(5-bromo-6-chloro-3-methyl-1H-indole-2-carbonyl)piperidin-4-yl)-1-oxoinsoindolin-2-yl)piperidine-2,6-dione]: the remaining activity at 10 µM worked out at 49%.

As to `Cc1c(C(=O)N2CCC(c3ccc4c(c3)C(=O)N(C3CCC(=O)NC3=O)C4=O)CC2)[nH]c2cc(Cl)ccc12` (stereo not shown) [Compound 92, 5-(1-(6-chloro-3-methyl-1H-indole-2-carbonyl)piperidin-4-yl)-2-(2,6-dioxopiperidin-3-yl)isoindoline-1,3-dione], the remaining activity at 10 µM came out at 36.1%.
